From ChEMBL document CHEMBL3132802, “Azole derivatives as novel non-iron-chelating inhibitors of prolyl hydroxylase 3 for HIF-1 activation” (Medchemcomm, 2013)
The source made the active and inactive calls. The rule behind the calls is not given here.

Tests used:
[1] = system: NCI-H446; experiment: Effect on HIF1alpha mRNA expression in human NCI-H446 cells after 12 hrs by RT-PCR analysis; format: functional, cell-based
[2] = system: NCI-H446; experiment: Cytotoxicity against human NCI-H446 cells assessed as proliferation rate up to 200 uM after 24 hrs by MTT assay; format: cell-based; settings: nci-h446, 24 h
[3] = Cytotoxicity against human NCI-H446 cells assessed as cell survival up to 200 uM after 24 hrs by MTT assay; format: cell-based; settings: read-out: Survival
[4] = biological target: Prolyl hydroxylase EGLN3 (Homo sapiens, UniProt Q9H6Z9); experiment: Inhibition of recombinant human PHD3 expressed in Escherichia coli using HIF19 peptide as substrate by fluorescence emission spectroscopy
Sequence of Prolyl hydroxylase EGLN3 (Q9H6Z9 whole entry): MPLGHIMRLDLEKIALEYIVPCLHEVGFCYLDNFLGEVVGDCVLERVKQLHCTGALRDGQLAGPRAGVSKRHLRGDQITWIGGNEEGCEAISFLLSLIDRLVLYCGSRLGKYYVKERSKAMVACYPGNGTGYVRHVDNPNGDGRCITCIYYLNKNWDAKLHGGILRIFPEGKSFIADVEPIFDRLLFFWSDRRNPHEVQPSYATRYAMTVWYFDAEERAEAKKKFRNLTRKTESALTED

SMILES	Activity [1]	Activity [2] [%]	viability at 24 h [3] [%]	IC50 [4] [µM]
O=C(O)CCn1cnc2ccccc21	inactive	> 80		
O=C(O)CCn1ccnc1	inactive		> 90	
c1ccc2[nH]c(CCn3nnc4ccccc43)nc2c1	inactive		> 90	
O=C(O)CCn1nnc2ccccc21	inactive		> 90	
c1ccc2[nH]nnc2c1 [BENZOTRIAZOLE]				> 100
c1ccc2[nH]c(CCn3cncn3)nc2c1	inactive	> 80		
O=C(O)CCn1cncn1	inactive	> 80		
c1ccc2[nH]cnc2c1 [BENZIMIDAZOLE]				> 100
